In ChEMBL document CHEMBL1641363, “Fragment-based discovery of 6-substituted isoquinolin-1-amine based ROCK-I inhibitors” (Bioorg Med Chem Lett, 2011):

Columns and labels:
[1] = target: Tyrosine-protein kinase Fes/Fps (Homo sapiens) (UniProt P07332); conditions: 10 uM
Description: Inhibition of FES at 10 uM

[2] = target: Serine/threonine-protein kinase PLK3 (Homo sapiens) (UniProt Q9H4B4); conditions: 10 uM
Description: Inhibition of PLK3 at 10 uM

[3] = target: T1, Ephrin type-A receptor 8 (Homo sapiens) (UniProt P29322); conditions: 10 uM
T1 sequence (whole entry): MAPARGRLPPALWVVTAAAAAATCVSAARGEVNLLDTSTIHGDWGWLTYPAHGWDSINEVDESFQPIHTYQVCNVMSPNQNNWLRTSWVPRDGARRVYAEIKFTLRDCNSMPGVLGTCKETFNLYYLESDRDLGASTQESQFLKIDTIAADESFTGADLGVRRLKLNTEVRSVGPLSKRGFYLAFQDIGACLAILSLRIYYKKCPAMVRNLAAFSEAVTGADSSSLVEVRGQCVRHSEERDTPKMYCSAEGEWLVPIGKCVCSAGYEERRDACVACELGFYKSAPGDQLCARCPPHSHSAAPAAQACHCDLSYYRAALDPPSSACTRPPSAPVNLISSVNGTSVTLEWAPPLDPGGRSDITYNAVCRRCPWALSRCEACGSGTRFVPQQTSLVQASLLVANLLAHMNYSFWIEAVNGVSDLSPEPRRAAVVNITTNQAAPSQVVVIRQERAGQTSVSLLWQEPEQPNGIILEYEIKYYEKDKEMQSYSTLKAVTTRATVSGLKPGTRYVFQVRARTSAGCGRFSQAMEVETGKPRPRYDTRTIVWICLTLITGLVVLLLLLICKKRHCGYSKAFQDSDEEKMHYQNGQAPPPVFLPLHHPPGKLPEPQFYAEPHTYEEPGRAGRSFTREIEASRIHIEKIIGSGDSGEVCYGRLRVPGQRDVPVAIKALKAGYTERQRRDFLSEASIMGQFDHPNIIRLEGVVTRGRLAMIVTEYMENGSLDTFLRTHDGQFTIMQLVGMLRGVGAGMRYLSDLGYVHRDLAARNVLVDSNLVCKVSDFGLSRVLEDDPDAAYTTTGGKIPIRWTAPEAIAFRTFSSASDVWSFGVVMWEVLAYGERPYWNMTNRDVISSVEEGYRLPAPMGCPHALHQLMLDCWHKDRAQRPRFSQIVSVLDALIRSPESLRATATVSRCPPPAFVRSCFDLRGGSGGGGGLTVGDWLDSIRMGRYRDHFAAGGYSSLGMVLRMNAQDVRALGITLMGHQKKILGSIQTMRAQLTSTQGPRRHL
Description: Inhibition of EPHA8 at 10 uM

[4] = Half life in human liver microsome; format: ADME; conditions: liver microsomes
[5] = Permeability from apical to basolateral side of human Caco2 cells; format: ADME, cell-based; conditions: Caco-2, read-out: permeability
[6] = Half life in rat hepatocyte; format: ADME, cell-based, Liver; conditions: hepatocytes
[7] = target: T2, cAMP-dependent protein kinase catalytic subunit PRKX (Homo sapiens) (UniProt P51817); conditions: 10 uM
T2 sequence (whole entry): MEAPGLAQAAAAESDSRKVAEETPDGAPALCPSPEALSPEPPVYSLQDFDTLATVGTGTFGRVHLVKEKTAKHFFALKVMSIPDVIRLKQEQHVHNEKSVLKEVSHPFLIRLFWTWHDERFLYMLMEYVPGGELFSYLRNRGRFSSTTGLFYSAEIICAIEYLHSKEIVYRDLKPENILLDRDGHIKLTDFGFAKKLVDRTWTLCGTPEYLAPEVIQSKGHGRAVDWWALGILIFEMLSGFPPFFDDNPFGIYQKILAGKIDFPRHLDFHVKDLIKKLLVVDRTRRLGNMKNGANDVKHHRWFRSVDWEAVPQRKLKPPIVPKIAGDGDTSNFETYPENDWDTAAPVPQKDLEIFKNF
Description: Inhibition of PRKX at 10 uM

[8] = target: T3, Tyrosine-protein kinase receptor TYRO3 (Homo sapiens) (UniProt Q06418); conditions: 10 uM
T3 sequence (whole entry): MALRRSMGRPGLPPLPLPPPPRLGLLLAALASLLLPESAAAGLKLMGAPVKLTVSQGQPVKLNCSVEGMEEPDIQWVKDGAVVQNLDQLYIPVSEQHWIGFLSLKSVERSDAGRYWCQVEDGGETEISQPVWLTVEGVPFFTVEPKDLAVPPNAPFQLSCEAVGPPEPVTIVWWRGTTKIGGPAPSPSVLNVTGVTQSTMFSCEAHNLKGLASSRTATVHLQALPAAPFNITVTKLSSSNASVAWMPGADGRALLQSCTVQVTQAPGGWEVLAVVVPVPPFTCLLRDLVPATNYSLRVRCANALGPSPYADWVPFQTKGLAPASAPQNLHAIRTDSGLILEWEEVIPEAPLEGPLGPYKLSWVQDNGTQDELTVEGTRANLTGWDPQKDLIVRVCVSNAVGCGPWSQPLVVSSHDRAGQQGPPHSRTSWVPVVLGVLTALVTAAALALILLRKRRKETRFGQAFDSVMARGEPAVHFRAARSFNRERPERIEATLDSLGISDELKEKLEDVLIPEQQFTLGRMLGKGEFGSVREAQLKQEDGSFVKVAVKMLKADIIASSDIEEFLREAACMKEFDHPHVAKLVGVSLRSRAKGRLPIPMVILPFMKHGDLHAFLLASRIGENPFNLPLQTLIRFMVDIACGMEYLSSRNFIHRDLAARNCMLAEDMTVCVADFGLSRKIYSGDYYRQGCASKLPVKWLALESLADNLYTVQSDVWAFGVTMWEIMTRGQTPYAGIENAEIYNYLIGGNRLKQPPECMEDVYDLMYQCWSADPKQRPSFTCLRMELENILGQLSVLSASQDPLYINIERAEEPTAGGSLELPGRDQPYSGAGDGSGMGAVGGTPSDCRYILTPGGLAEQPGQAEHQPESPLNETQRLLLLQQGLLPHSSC
Description: Inhibition of RSE at 10 uM

[9] = target: Voltage-gated inwardly rectifying potassium channel KCNH2 (Homo sapiens, UniProt Q12809); test: Displacement of [3H]dofetilide from human ERG
[10] = target: Platelet-derived growth factor receptor alpha (Homo sapiens) (UniProt P16234); conditions: 10 uM
Description: Inhibition of PDGFRA at 10 uM

[11] = target: Proto-oncogene tyrosine-protein kinase receptor Ret (Homo sapiens) (UniProt P07949); conditions: 10 uM
Proto-oncogene tyrosine-protein kinase receptor Ret (Homo sapiens), sequence (P07949 whole entry): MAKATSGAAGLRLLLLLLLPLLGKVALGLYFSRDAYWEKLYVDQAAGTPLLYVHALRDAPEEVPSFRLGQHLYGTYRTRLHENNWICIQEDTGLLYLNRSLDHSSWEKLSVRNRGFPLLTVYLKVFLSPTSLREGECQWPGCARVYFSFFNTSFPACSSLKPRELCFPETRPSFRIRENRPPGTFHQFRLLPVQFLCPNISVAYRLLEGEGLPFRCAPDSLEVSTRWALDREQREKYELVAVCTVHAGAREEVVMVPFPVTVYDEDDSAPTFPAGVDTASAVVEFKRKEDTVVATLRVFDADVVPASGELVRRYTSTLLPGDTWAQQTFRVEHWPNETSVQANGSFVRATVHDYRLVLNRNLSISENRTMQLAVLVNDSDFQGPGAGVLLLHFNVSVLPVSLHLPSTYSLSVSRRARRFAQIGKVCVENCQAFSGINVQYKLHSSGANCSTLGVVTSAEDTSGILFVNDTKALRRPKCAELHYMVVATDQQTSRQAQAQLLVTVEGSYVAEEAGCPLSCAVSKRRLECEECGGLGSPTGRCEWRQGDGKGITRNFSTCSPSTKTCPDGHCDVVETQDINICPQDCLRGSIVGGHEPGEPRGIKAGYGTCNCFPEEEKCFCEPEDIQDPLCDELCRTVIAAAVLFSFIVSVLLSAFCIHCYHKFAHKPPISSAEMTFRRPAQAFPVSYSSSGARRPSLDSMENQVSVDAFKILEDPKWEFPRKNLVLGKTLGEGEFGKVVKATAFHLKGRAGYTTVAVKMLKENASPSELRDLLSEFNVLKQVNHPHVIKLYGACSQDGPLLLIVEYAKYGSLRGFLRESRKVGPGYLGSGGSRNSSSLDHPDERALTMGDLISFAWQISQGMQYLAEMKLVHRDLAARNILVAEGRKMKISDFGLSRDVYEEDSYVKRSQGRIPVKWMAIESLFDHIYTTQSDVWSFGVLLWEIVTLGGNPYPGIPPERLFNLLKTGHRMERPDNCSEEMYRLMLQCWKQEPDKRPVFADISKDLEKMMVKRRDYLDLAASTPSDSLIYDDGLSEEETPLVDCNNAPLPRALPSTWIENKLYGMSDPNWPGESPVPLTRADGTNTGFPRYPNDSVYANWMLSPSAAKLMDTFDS
Description: Inhibition of RET at 10 uM

Serine/threonine-protein kinase PLK3 (Homo sapiens), sequence (Q9H4B4 whole entry, looked up): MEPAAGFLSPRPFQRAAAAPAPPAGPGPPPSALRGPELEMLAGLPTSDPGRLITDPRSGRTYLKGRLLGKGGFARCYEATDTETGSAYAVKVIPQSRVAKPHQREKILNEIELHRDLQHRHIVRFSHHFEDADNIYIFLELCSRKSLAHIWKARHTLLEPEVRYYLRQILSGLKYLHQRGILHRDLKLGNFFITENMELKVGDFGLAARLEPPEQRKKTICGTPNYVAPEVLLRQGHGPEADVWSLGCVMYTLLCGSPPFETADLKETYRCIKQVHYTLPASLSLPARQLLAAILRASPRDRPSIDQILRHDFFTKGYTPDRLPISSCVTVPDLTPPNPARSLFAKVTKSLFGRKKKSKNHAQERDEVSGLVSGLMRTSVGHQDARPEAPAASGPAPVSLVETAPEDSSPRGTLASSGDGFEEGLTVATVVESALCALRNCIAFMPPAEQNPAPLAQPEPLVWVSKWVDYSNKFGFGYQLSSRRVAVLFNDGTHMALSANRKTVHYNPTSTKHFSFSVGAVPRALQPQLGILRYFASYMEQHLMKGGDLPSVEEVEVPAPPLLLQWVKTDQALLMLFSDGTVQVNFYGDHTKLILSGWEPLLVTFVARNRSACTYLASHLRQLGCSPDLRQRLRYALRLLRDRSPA
Platelet-derived growth factor receptor alpha (Homo sapiens), sequence (P16234 whole entry): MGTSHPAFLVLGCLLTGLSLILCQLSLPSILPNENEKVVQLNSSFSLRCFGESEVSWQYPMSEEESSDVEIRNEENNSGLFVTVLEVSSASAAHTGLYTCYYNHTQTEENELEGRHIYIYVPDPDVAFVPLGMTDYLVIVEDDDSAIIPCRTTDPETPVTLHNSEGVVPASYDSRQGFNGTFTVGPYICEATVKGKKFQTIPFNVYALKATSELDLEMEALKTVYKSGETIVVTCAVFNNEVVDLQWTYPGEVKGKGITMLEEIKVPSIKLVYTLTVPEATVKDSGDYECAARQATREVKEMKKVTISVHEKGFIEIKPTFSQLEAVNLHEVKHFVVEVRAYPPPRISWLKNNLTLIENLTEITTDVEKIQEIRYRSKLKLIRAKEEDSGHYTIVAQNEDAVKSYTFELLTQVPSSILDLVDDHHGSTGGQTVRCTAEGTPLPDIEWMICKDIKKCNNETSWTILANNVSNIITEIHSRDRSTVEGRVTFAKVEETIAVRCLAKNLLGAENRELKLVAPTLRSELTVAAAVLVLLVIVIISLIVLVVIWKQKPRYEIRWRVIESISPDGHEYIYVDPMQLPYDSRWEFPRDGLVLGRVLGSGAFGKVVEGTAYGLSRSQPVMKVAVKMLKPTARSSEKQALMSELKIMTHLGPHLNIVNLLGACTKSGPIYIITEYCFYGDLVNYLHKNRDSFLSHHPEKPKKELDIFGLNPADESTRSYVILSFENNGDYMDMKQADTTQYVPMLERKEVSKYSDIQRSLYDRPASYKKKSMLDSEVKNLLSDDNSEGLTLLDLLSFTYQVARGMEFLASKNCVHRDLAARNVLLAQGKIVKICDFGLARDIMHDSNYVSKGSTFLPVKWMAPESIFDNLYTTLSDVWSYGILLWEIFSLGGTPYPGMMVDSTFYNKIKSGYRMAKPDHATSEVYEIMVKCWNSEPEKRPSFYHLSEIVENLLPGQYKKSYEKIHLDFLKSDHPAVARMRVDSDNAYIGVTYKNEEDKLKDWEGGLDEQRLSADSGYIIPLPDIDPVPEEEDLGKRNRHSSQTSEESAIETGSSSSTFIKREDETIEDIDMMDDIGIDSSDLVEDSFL
Tyrosine-protein kinase Fes/Fps (Homo sapiens), sequence (P07332 whole entry): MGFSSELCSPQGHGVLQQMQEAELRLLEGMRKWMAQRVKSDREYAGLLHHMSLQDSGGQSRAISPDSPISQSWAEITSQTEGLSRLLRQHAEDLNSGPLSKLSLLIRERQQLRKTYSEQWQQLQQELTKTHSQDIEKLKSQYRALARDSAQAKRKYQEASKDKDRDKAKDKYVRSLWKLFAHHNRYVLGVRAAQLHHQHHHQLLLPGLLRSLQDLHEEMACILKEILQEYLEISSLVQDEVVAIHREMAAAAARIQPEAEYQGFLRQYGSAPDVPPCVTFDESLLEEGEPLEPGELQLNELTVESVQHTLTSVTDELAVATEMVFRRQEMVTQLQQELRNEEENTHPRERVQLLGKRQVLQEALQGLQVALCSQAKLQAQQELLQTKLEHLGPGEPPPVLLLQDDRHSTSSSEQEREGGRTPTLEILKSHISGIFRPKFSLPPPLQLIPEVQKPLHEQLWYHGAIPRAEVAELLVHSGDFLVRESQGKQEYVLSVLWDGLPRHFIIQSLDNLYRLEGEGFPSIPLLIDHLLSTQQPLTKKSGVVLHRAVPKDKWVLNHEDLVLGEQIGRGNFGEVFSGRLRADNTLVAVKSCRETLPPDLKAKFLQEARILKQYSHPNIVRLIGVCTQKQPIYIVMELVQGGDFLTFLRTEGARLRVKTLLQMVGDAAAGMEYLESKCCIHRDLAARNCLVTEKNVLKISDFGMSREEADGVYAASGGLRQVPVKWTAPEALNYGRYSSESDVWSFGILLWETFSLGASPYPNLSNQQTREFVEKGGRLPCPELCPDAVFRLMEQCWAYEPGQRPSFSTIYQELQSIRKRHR
Voltage-gated inwardly rectifying potassium channel KCNH2, sequence (Q12809 whole entry): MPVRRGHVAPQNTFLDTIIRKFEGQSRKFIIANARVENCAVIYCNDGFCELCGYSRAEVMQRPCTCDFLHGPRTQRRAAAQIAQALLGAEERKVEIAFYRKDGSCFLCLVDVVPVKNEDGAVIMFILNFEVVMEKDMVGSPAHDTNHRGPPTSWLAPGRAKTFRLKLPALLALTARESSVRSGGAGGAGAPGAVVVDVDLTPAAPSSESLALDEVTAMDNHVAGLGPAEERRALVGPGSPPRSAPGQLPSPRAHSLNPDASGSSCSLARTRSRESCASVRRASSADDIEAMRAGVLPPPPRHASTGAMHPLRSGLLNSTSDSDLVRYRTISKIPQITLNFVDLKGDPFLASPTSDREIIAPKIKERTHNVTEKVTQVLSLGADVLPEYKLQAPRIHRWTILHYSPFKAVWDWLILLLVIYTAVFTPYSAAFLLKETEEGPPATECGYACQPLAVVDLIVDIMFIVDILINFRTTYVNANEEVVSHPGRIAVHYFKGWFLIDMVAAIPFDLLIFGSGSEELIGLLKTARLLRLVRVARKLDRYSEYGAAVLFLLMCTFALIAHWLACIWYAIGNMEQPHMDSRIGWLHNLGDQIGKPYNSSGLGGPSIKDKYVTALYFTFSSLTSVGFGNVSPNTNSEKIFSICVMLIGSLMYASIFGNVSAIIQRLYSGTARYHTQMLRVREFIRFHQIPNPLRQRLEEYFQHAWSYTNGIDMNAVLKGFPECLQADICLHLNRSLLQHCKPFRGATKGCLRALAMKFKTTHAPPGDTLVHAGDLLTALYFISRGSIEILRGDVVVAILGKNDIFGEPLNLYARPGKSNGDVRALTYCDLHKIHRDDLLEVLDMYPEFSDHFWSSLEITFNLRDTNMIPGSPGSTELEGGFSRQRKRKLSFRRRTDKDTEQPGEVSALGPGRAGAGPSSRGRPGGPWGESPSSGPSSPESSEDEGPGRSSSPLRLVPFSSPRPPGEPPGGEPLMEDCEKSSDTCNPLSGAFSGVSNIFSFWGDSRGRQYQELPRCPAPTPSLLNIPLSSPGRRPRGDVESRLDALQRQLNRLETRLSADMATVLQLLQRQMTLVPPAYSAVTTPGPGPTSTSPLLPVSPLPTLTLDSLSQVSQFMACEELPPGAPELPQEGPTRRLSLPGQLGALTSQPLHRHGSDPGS

`Nc1nccc2cc(O[C@H]3CCCNC3)ccc12` showed an inhibition [1] greater than 80%, an inhibition [2] greater than 80% and an inhibition [3] greater than 80%. The half-life [4] was greater than 2 h, the Papp A→B [5] was 6.3 ×10⁻⁶ cm/s and the half-life [6] was 1.17 h. It also gave an inhibition [7] greater than 80%, an inhibition [8] greater than 80% and a Ki [9] of 20 µM. It also gave an inhibition [10] greater than 80% and an inhibition [11] greater than 80%.
